According to US10870627B2, “Salt of quinazoline derivative, preparation method therefor and application thereof” (SHANGHAI PHARMACEUTICALS HOLDING CO., LTD., priority 2016, dated 2020):
Read-outs that look alike come from different tables or passages of the source.

Tests used:
[1] = Solid-state stability test; type: physicochemical
Experimental: An appropriate amount of the drugs were placed in the surface dish, spread to a thickness of 3-5 mm, and exposed in high temperature, high temperature and high humidity, illumination and oxidation conditions for 10 days respectively, and the solid-state characterization was performed. The purity and the number of impurities 0.05%) of the samples for testing were determined by HPLC, and compared with the samples on day 0. The exposure conditions are:
High temperature (an oven with T=60° C.);
Illumination (25° C., a 4500±500 lx light incubator);
Oxidation (25° C., a closed container containing urea hydrogen peroxide).

Solution stability test = type: physicochemical
Experimental: About 15 mg of the sample was weighed accurately, dissolved with 25 mL of the test solvent (10% aqueous acetone solution, pH=4.0 B-R buffer solution, SGF, SIF) via ultrasound for 20 minutes. The solution was divided into four portions and placed in the clear glass vials, followed by sealing. The samples were exposed in different environments and sampled on day 0 and day 5. The purity of each sample was determined by HPLC, and the number of impurities greater than 0.05% was calculated and compared with the samples on day 0. The exposure environments are:
Room temperature and light-proof test, 25° C.; […]
Illumination experiment (4500±500 lx), 25° C.;
Oxidation experiment (3% v/v hydrogen peroxide), 25° C.

[2] = Comparison of absorption in rats after intragastric administration of free base and salt (plasma pharmacokinetics); type: in vivo, SD rats; conditions: for AUC (0-t) and Cmax, comparison in words: rats, oral, same dose, free base and 6 salts
Experimental: The blood sample was centrifuged at 8000 RPM for 5 minutes, followed by the isolation of the upper plasma. […] 200 μL of the supernatant was taken and centrifuged again for 10 minutes. 50 μL of the supernatant was injected in a 96-well plate. The plasma drug concentration was determined by LC/MS/MS, and the corresponding pharmacokinetic parameters were calculated.

[3] = Dynamic vapor sorption (DVS), isothermal absorption analysis; type: physicochemical
Experimental: In the present invention, according to the common knowledge in the art, the amount of water absorption obtained from the dynamic vapor sorption (DVS) pattern is expressed in percentage by weight.
The isothermal absorption analysis (DVS) data was collected from TA Instruments Q5000 TGA. The software for instrument control was Thermal Advantage and software for analysis was Universal Analysis. 1-10 mg of the sample was generally placed in a platinum crucible, and the weight change of the sample during the relative humidity changing from 20% to 80% was recorded by the TA software. Depending on the specifics of the sample, different steps of sample adsorption and desorption were also involved.

[4] = Water solubility at 20° C. determined by HPLC; type: physicochemical
Experimental: The solubility was determined as follows: a certain amount of the sample was weighed and the solvent was added thereto in portions with stirring or ultrasonication to accelerate dissolution; the amount of the consumed solvent was recorded once the sample was dissolved. […] A certain volume of the solution was taken, followed by filtration, concentration, dissolved with a certain volume of other suitable solvents and subjected to HPLC measurement to obtain accurate data of the solubility.

[5] = 10 d, High temperature (oven, T=60° C.)
[6] = 10 d, High temperature and high humidity (40° C., 75% relative humidity)
[7] = 10 d, Illumination (25° C., 4500±500 lx)
[8] = 10 d, Oxidation (25° C., closed container with urea hydrogen peroxide)
[9] = 10% aqueous acetone solution, 5 d, High temperature
[10] = 10% aqueous acetone solution, 5 d, High temperature and high humidity
[11] = 10% aqueous acetone solution, 5 d, Illumination (4500±500 lx, 25° C.)
[12] = B-R Buffer solution (pH=4.0), 5 d, High temperature
[13] = B-R Buffer solution (pH=4.0), 5 d, High temperature and high humidity
[14] = B-R Buffer solution (pH=4.0), 5 d, Illumination (4500±500 lx, 25° C.)
[15] = B-R Buffer solution (pH=4.0), 5 d, Oxidation (3% v/v hydrogen peroxide, 25° C.)
[16] = SGF, 5 d, High temperature and high humidity
[17] = SGF, 5 d, Illumination (4500±500 lx, 25° C.)
[18] = SGF, 5 d, Oxidation (3% v/v hydrogen peroxide, 25° C.)
[19] = SIF, 5 d, High temperature and high humidity
[20] = SIF, 5 d, Illumination (4500±500 lx, 25° C.)
[21] = SIF, 5 d, Oxidation (3% v/v hydrogen peroxide, 25° C.)
[22] = rat, po, 20 umol/kg, SD rats, intragastric administration, plasma
[23] = SD rats, 20 μmol/kg, intragastric administration, plasma
[24] = relative humidity range of 50-80%

C=C(F)C(=O)Nc1cc2c(Nc3ccc(F)c(Cl)c3)ncnc2cc1OCCCN1CCOCC1 [N-[4-(3-chloro-4-fluoroanilino)]-7-(3-morpholinopropoxy)-6-(2-fluoroacrylamido)-quinazoline, reference compound]
Number of impurities ([1]; 0 d): 1
Number of impurities [1, 5]: 2
Purity [1, 5]: 99.0%
Number of impurities [1, 6]: 3
Purity [1, 6]: 99.0%
Number of impurities [1, 7]: 2
Purity [1, 7]: 99.0%
Number of impurities [1, 8]: 3
Purity [1, 8]: 99.0%
Purity (Solution stability test; 10% aqueous acetone solution, 0 d): 93.4%
Number of impurities (Solution stability test; 10% aqueous acetone solution, 0 d, impurities greater than 0.05%): 2
Number of impurities (Solution stability test; [9]): 2
Purity (Solution stability test; [9]): 83.1%
Number of impurities (Solution stability test; [10]): 6
Purity (Solution stability test; [10]): 13.3%
Number of impurities (Solution stability test; [11]): 4
Purity (Solution stability test; [11]): 61.5%
Purity (Solution stability test; 10% aqueous acetone solution, 5 d, Oxidation (3% v/v hydrogen peroxide, 25° C.)): Complete
Purity (Solution stability test; B-R Buffer solution (pH=4.0), 0 d): 99.0%
Number of impurities (Solution stability test; B-R Buffer solution (pH=4.0), 0 d, impurities greater than 0.05%): 1
Number of impurities (Solution stability test; [12]): 1
Purity (Solution stability test; [12]): 99.0%
Number of impurities (Solution stability test; [13]): 4
Purity (Solution stability test; [13]): 95.0%
Number of impurities (Solution stability test; [14]): 1
Purity (Solution stability test; [14]): 99.0%
Number of impurities (Solution stability test; [15]): 13
Purity (Solution stability test; [15]): 40.6%
Purity (Solution stability test; SGF, 0 d): 99.0%
Number of impurities (Solution stability test; SGF, 0 d, impurities greater than 0.05%): 2
Number of impurities (Solution stability test; SGF, 5 d, High temperature): 2
Purity (Solution stability test; SGF, 5 d, High temperature): 99.0%
Number of impurities (Solution stability test; [16]): 4
Purity (Solution stability test; [16]): 94.2%
Number of impurities (Solution stability test; [17]): 2
Purity (Solution stability test; [17]): 99.0%
Number of impurities (Solution stability test; [18]): 3
Purity (Solution stability test; [18]): 84.3%
Purity (Solution stability test; SIF, 0 d): 88.9%
Number of impurities (Solution stability test; SIF, 0 d, impurities greater than 0.05%): 1
Number of impurities (Solution stability test; SIF, 5 d, High temperature): 2
Purity (Solution stability test; SIF, 5 d, High temperature): 85.6%
Number of impurities (Solution stability test; [19]): 4
Purity (Solution stability test; [19]): 81.9%
Number of impurities (Solution stability test; [20]): 18
Purity (Solution stability test; [20]): 50.0%
Number of impurities (Solution stability test; [21]): 5
Purity (Solution stability test; [21]): 62.7%
AUC (0-t) ([2]; rat, po, 20 umol/kg, SD rats, 20 μmol/kg, intragastric administration, plasma, read-out: AUC (0-t) (converted)): 2.05 µM·h
MRT last ([2]; rat, po, 20 umol/kg, SD rats, 20 μmol/kg, intragastric administration, plasma, read-out: MRT (0-T) (converted)): 6.66 h
Tmax ([2]; rat, po, 20 umol/kg, SD rats, 20 μmol/kg, intragastric administration, plasma, read-out: Tmax (converted)): 1 h
Cmax [2, 22]: 310 ± 70 nM
half-life [2, 22]: 4.28 ± 1.77 h

C=C(F)C(=O)Nc1cc2c(Nc3ccc(F)c(Cl)c3)ncnc2cc1OCCCN1CCOCC1.O.O.O=C(O)CC(O)(CC(=O)O)C(=O)O [crystal form 7 of the dihydrate]
weight change (water absorbed) by DVS ([3]; relative humidity range of 10-80%): 0.38%

C=C(F)C(=O)Nc1cc2c(Nc3ccc(F)c(Cl)c3)ncnc2cc1OCCCN1CCOCC1.O=C(O)CC(O)(CC(=O)O)C(=O)O [crystal form 13 of the monocitrate]
weight change (water absorbed) by DVS ([3]; relative humidity range of 20-80%): 0.2%

C=C(F)C(=O)Nc1cc2c(Nc3ccc(F)c(Cl)c3)ncnc2cc1OCCCN1CCOCC1.O=C(O)[C@H](O)[C@@H](O)[C@H](O)[C@H](O)CO
water solubility at 20° C. determined by HPLC [4]: 51.4 µg/mL
AUC (0-t) [2, 23]: 8.0733 ± 3.3618 µM·h
MRT (0-T) [2, 23]: 6.2613 ± 2.5515 h
Tmax [2, 23]: 1.333 ± 0.5773 h
t1/2 [2, 23]: 3.5572 ± 0.3487 h
Cmax ([2]; SD rats, 20 μmol/kg, intragastric administration, plasma, listed as mono-D-gluconate): 1120 ± 280 nM
AUC (0-t) and Cmax, comparison in words [2]: relatively low

C=C(F)C(=O)Nc1cc2c(Nc3ccc(F)c(Cl)c3)ncnc2cc1OCCCN1CCOCC1.O.O.O=C(O)CC(O)(CC(=O)O)C(=O)O [crystal form 11 of the dihydrate]
stability of the hydrate (DVS), in words [3, 24]: stable
weight change (water absorbed) by DVS [3, 24]: 5.3%

C=C(F)C(=O)Nc1cc2c(Nc3ccc(F)c(Cl)c3)ncnc2cc1OCCCN1CCOCC1.O.O.O=C(O)CC(O)(CC(=O)O)C(=O)O [crystal form 5 of the dihydrate]
weight change (water absorbed) by DVS ([3]; relative humidity range of 0-80%): 0.4%

C=C(F)C(=O)Nc1cc2c(Nc3ccc(F)c(Cl)c3)ncnc2cc1OCCCN1CCOCC1.O.O.O.O=C(O)CC(O)(CC(=O)O)C(=O)O [crystal form 10 of the trihydrate]
water eliminated by DVS ([3]; below a relative humidity of 50%): 3.5%
stability of the hydrate (DVS), in words [3, 24]: stable
weight change (water absorbed) by DVS [3, 24]: 1.1%

C=C(F)C(=O)Nc1cc2c(Nc3ccc(F)c(Cl)c3)ncnc2cc1OCCCN1CCOCC1.Cl.O
water solubility at 20° C. determined by HPLC [4]: 51.5 µg/mL
AUC (0-t) [2, 23]: 8.4648 ± 1.114 µM·h
MRT (0-T) [2, 23]: 6.8127 ± 1.364 h
Tmax [2, 23]: 1.167 ± 0.2887 h
t1/2 [2, 23]: 4.5078 ± 1.56 h
Cmax ([2]; SD rats, 20 μmol/kg, intragastric administration, plasma, listed as monohydrochloride monohydrate): 980 ± 60 nM
AUC (0-t) and Cmax, comparison in words [2]: relatively low
